Source: the NIST ThermoML archive (doi:10.1021/je0602824)

Assay: xn = mol fraction of the nth substance listed
Settings: 101 kPa, Liquid

CCn1cc[n+](C)c1.O=C([O-])C(F)(F)F [1-ethyl-3-methylimidazolium trifluoroacetate] + O
Settings	mass density [kg/m3]	viscosity [mPa·s]
278.15 K, x2 = 0	1306.89	78
278.15 K, x2 = 0.2042	–	56
278.15 K, x2 = 0.205	1299.84	–
278.15 K, x2 = 0.3952	–	40
278.15 K, x2 = 0.3983	1291.27	–
278.15 K, x2 = 0.5808	1278	25
278.15 K, x2 = 0.7565	–	16
278.15 K, x2 = 0.7573	1248.38	–
278.15 K, x2 = 0.842	1216.87	–
278.15 K, x2 = 0.9256	1151.47	6
278.15 K, x2 = 0.9667	1086.88	–
278.15 K, x2 = 0.9912	1026.68	–
288.15 K, x2 = 0	1298.81	48
288.15 K, x2 = 0.2042	–	35
288.15 K, x2 = 0.205	1291.82	–
288.15 K, x2 = 0.3952	–	26
288.15 K, x2 = 0.3983	1283.25	–
288.15 K, x2 = 0.5808	1269.93	17
288.15 K, x2 = 0.7565	–	11
288.15 K, x2 = 0.7573	1240.21	–
288.15 K, x2 = 0.842	1208.86	–
288.15 K, x2 = 0.9256	1144.67	5
288.15 K, x2 = 0.9667	1082.51	–
288.15 K, x2 = 0.9912	1024.93	–
298.15 K, x2 = 0	1290.8	32
298.15 K, x2 = 0.2042	–	24
298.15 K, x2 = 0.205	1283.85	–
298.15 K, x2 = 0.3952	–	18
298.15 K, x2 = 0.3983	1275.26	–
298.15 K, x2 = 0.5808	1261.85	12
298.15 K, x2 = 0.7565	–	8
298.15 K, x2 = 0.7573	1231.95	–
298.15 K, x2 = 0.842	1200.76	–
298.15 K, x2 = 0.9256	1137.65	4
298.15 K, x2 = 0.9667	1077.55	–
298.15 K, x2 = 0.9912	1022.15	–
308.15 K, x2 = 0	1282.85	23
308.15 K, x2 = 0.2042	–	17
308.15 K, x2 = 0.205	1275.92	–
308.15 K, x2 = 0.3952	–	14
308.15 K, x2 = 0.3983	1267.29	–
308.15 K, x2 = 0.5808	1253.77	9
308.15 K, x2 = 0.7565	–	6
308.15 K, x2 = 0.7573	1223.66	–
308.15 K, x2 = 0.842	1192.57	–
308.15 K, x2 = 0.9256	1130.4	3
308.15 K, x2 = 0.9667	1072.06	–
308.15 K, x2 = 0.9912	1018.5	–
318.15 K, x2 = 0	1274.95	17
318.15 K, x2 = 0.2042	–	13
318.15 K, x2 = 0.205	1268.04	–
318.15 K, x2 = 0.3952	–	10
318.15 K, x2 = 0.3983	1259.34	–
318.15 K, x2 = 0.5808	1245.67	8
318.15 K, x2 = 0.7565	–	5
318.15 K, x2 = 0.7573	1215.3	–
318.15 K, x2 = 0.842	1184.27	–
318.15 K, x2 = 0.9256	1122.93	3
318.15 K, x2 = 0.9667	1066.08	–
318.15 K, x2 = 0.9912	1014.11	–
328.15 K, x2 = 0	1267.12	13
328.15 K, x2 = 0.2042	–	10
328.15 K, x2 = 0.205	1260.21	–
328.15 K, x2 = 0.3952	–	8
328.15 K, x2 = 0.3983	1251.41	–
328.15 K, x2 = 0.5808	1237.55	6
328.15 K, x2 = 0.7565	–	5
328.15 K, x2 = 0.7573	1206.84	–
328.15 K, x2 = 0.842	1175.86	–
328.15 K, x2 = 0.9256	1115.2	3
328.15 K, x2 = 0.9667	1059.66	–
328.15 K, x2 = 0.9912	1009.07	–
338.15 K, x2 = 0	1259.35	10
338.15 K, x2 = 0.2042	–	8
338.15 K, x2 = 0.205	1252.42	–
338.15 K, x2 = 0.3952	–	7
338.15 K, x2 = 0.3983	1243.49	–
338.15 K, x2 = 0.5808	1229.41	6
338.15 K, x2 = 0.7565	–	4
338.15 K, x2 = 0.7573	1198.32	–
338.15 K, x2 = 0.842	1167.33	–
338.15 K, x2 = 0.9256	1107.28	2
338.15 K, x2 = 0.9667	1052.83	–
338.15 K, x2 = 0.9912	1002.87	–
348.15 K, x2 = 0	1251.63	9
348.15 K, x2 = 0.2042	–	7
348.15 K, x2 = 0.205	1244.66	–
348.15 K, x2 = 0.3952	–	6
348.15 K, x2 = 0.3983	1235.59	–
348.15 K, x2 = 0.5808	1221.23	5
348.15 K, x2 = 0.7565	–	4
348.15 K, x2 = 0.7573	1189.98	–
348.15 K, x2 = 0.842	1158.69	–
348.15 K, x2 = 0.9256	1099.05	2
348.15 K, x2 = 0.9667	1045.56	–
348.15 K, x2 = 0.9912	997.23	–
